From ChEMBL document CHEMBL4270488, “Antibacterial Compounds from Marine Bacteria, 2010-2015” (J Nat Prod, 2017) come the findings set out here.

A word on the MIC: it is the smallest concentration in the dilution series that meets the test's criterion for growth inhibition.

The structures appear in SMILES notation. Converted amounts (≈) assume the structure as drawn. Where a SMILES comes first, the peptide text is derived from it. [ ]: non-standard residue; d: D form. The star is where a group is joined. Tridecanoyl(3R-OH,11-Me) = CCC(C)CCCCCCC[C@@H](O)CC(=O)*; X1 = CCC(C)CC(C)CCCC[C@@H](O)CC(=O)*

The test system of one experiment is Bacillus thuringiensis. Briefly: Antibacterial activity against Bacillus thuringiensis SCSIO BT01. The experiment is classed as functional.
The subject of experiment [1] is Staphylococcus aureus. Briefly: Antibacterial activity against Staphylococcus aureus ATCC 29213. In kind it is functional.
The test system of experiment [2] is Bacillus subtilis. Nature of the experiment: Antibacterial activity against Bacillus subtilis SCSIO BS01. The experiment is classed as functional.
The test system of experiment [3] is Staphylococcus aureus. Briefly: Antibacterial activity against Staphylococcus aureus by broth dilution assay. In kind it is functional. (In general: Dilution methods test growth across graded concentrations, often in twofold steps.)
In experiment [4] the test system is Bacillus subtilis. Briefly: Antibacterial activity against Bacillus subtilis by broth dilution assay. In kind it is functional.
For experiment [5], the system named is Escherichia coli. Briefly: Antibacterial activity against Escherichia coli by broth dilution assay. The experiment is classed as functional.
The next experiment relates to Salmonella typhi. Briefly: Antibacterial activity against Salmonella typhi by broth dilution assay. The experiment is classed as functional, Salmonella enterica subsp. enterica serovar Typhi. To be noted: Salmonella enterica.
The next experiment has as its system Pseudomonas aeruginosa. Briefly: Antibacterial activity against Pseudomonas aeruginosa by broth dilution assay. The experiment is classed as functional.
In experiment [6] the test system is Staphylococcus aureus. Nature of the experiment: Antibacterial activity against methicillin-resistant Staphylococcus aureus. In kind it is functional.
The subject of another experiment is Proteus vulgaris. Nature of the experiment: Antibacterial activity against Proteus vulgaris by serial dilution assay. In kind it is functional.
For a further experiment, the system named is Micrococcus luteus. Nature of the experiment: Antibacterial activity against Micrococcus luteus by serial dilution assay. In kind it is functional.
Experiment [7] concerns Bacillus subtilis. Nature of the experiment: Antibacterial activity against Bacillus subtilis by serial dilution assay. The experiment is classed as functional.
In experiment [8] the test system is Escherichia coli. Briefly: Antibacterial activity against Escherichia coli by serial dilution assay. In kind it is functional.

`C=C1CC[C@H](Cl)C(C)(C)[C@@H]1C[C@@]12OC(C)(C)[C@H](Cl)C[C@]1(Cl)C(=O)c1c(O)cc(O)cc1C2=O`: the MIC against Bacillus thuringiensis, against Staphylococcus aureus [1] and against Bacillus subtilis [2] was no more than 2 µg/mL each time.

On to `C[C@@H]1CCC/C=C/C=C/[C@H](O)C[C@@H](O)[C@H](O)/C=C\C=C\[C@@H](O)C/C=C/C=C\C(=O)O1`, for which the minimal inhibitory concentration (MIC) against Staphylococcus aureus [3] is 0.1 µg/mL (≈ 0.239 µM); in the experiment with Bacillus subtilis [4], 100 µg/mL (≈ 239 µM); in the experiment with Escherichia coli [5] it was 0.3 µg/mL (≈ 0.717 µM).

Regarding `CCC(C)CCCCCCC[C@@H](O)CC(=O)N[C@@H](CCC(=O)O)C(=O)N[C@@H](CC(C)C)C(=O)N[C@@H](CC(C)C)C(=O)N[C@@H](C(=O)N[C@@H](CC(=O)O)C(=O)N[C@@H](CC(C)C)C(=O)N[C@@H](CC(C)C)C(=O)O)C(C)C` (stereo partly drawn) ({Tridecanoyl(3R-OH,11-Me)}-ELL[dV]DLL-OH), the MIC in the experiment on Salmonella typhi, with Pseudomonas aeruginosa, against Staphylococcus aureus [3] and against Bacillus subtilis [4] was 16 µg/mL (≈ 15.4 µM) throughout.

`CC[C@H]1[C@@H]2C=C[C@@H]3[C@H]4/C=C/CC(=O)NCCC[C@H]5C(O)=C(C(=O)/C=C/[C@@H]4C[C@@H]3[C@H]2C[C@H]1C)C(=O)N5C` had an MIC in the experiment with Staphylococcus aureus [6] of 1 to 4 µg/mL (≈ 2.03 to 8.12 µM).

Consider `COC(=O)C[C@H](O)C[C@@H](O)C[C@H](O)/C=C/C=C/CCC[C@@H](C)O`, for which the minimum inhibitory concentration (MIC) against Bacillus subtilis [4] and in the experiment on Escherichia coli [5] was no less than 16 µg/mL each time.

Consider `O=C1N/C(=N\O)C(c2ccc(O)c([N+](=O)[O-])c2)=C1c1ccccc1`, for which the minimal inhibitory concentration (MIC) in the experiment on Proteus vulgaris, with Micrococcus luteus, in the experiment on Bacillus subtilis [7] and in the experiment on Escherichia coli [8] was 3 to 25 µg/mL (≈ 9.22 to 76.9 µM) in each case.

With `CC(C)=CCc1cc(C(=O)Nc2c(O)c3ccc(O[C@@H]4OC(C)(C)[C@H](O)[C@@H](O)[C@H]4O)c(C)c3oc2=O)cc(O)c1O`, in the experiment on Staphylococcus aureus [6], the minimal inhibitory concentration (MIC) was greater than 64 µg/mL.

On to `C[C@@H](O)CCC/C=C/C=C/[C@H](O)C[C@@H](O)C/C=C\C=C\C(=O)O`, for which the minimum inhibitory concentration (MIC) in the experiment on Bacillus subtilis [4] and with Escherichia coli [5] was no less than 16 µg/mL throughout.

Consider `COC(=O)CCC(=O)O[C@@H]1/C=C/C=C\C[C@H](O)C[C@@H](O)/C=C/C=C/CCC[C@@H](C)OC(=O)/C=C\C=C\C1`, for which the minimum inhibitory concentration (MIC) with Bacillus subtilis [4] and against Escherichia coli [5] was no less than 16 µg/mL throughout.

As to `C[C@@H](O)CCC/C=C/C=C/[C@H](O)C[C@@H](O)C/C=C\C=C\[C@@H](O)C/C=C/C=C\C(=O)O`, the minimum inhibitory concentration (MIC) with Bacillus subtilis [4] and against Escherichia coli [5] was 8 µg/mL (≈ 19 µM) each time.

As to `C=C1CC[C@H](Br)C(C)(C)[C@@H]1C[C@@]12OC(C)(C)[C@H](Cl)C[C@]1(Cl)C(=O)c1c(O)cc(O)cc1C2=O`, the MIC in the experiment on Bacillus thuringiensis, against Staphylococcus aureus [1] and against Bacillus subtilis [2] was no more than 0.5 µg/mL each time.

For `CC(C)=CCC/C(C)=C/C[C@@]12OC(C)(C)[C@H](Cl)C[C@]1(Cl)C(=O)c1c(O)cc(O)cc1C2=O`, the minimal inhibitory concentration (MIC) in the experiment on Bacillus thuringiensis, in the experiment with Staphylococcus aureus [1] and in the experiment with Bacillus subtilis [2] was no more than 2 µg/mL throughout.

Compound `CO[C@@H]1[C@@H](OC(N)=O)[C@@H](O)[C@H](Oc2ccc3c(O)c(NC(=O)c4ccc(O)c(CC=C(C)C)c4)c(=O)oc3c2C)OC1(C)C` [NOVOBIOCIN] gave an MIC in the experiment on Staphylococcus aureus [6] of 0.25 µg/mL (≈ 0.408 µM).

Consider `CCC(C)CC(C)CCCC[C@@H](O)CC(=O)N[C@@H](CCC(=O)O)C(=O)N[C@@H](CC(C)C)C(=O)N[C@@H](CC(C)C)C(=O)N[C@@H](CC(C)C)C(=O)O` (some centres not stated) (X1-ELLL-OH), for which the minimal inhibitory concentration (MIC) against Salmonella typhi came out at 0.01 µg/mL (≈ 0.014 µM); against Pseudomonas aeruginosa, 0.01 µg/mL (≈ 0.014 µM); in the experiment on Staphylococcus aureus [3], 0.03 µg/mL (≈ 0.0421 µM); against Bacillus subtilis [4] it was 0.03 µg/mL (≈ 0.0421 µM).

On to `C[C@@H]1CCCCC/C=C/[C@H](O)C[C@@H](O)C/C=C\C=C\[C@@H](O[C@@H]2O[C@H](CO)[C@@H](O)[C@H](O)[C@H]2O)C/C=C/C=C\C(=O)O1`, for which the minimal inhibitory concentration (MIC) against Salmonella typhi worked out at 0.03 µg/mL (≈ 0.0529 µM); in the experiment with Pseudomonas aeruginosa, 0.03 µg/mL (≈ 0.0529 µM); with Staphylococcus aureus [3] it was 0.06 µg/mL (≈ 0.106 µM); in the experiment with Bacillus subtilis [4], 0.06 µg/mL (≈ 0.106 µM); against Escherichia coli [5], 0.06 µg/mL (≈ 0.106 µM).

Consider `C[C@@H]1CCC[C@@H](O)/C=C/[C@@H]2O[C@@H]2C[C@@H](O)C/C=C\C=C\[C@@H](O)C/C=C/C=C\C(=O)O1`, for which the minimum inhibitory concentration (MIC) in the experiment with Bacillus subtilis [4] and in the experiment on Escherichia coli [5] was 16 µg/mL (≈ 38.2 µM) throughout.

For `CC(C)=CCc1cc(C(=O)Nc2c(O)c3ccc(O[C@@H]4OC(C)(C)[C@H](O)[C@@H](O)[C@H]4O)c(C)c3oc2=O)ccc1O`, in the experiment on Staphylococcus aureus [6], the minimum inhibitory concentration (MIC) is greater than 64 µg/mL.

Turning to `O=C1NC(=O)C(c2ccc(O)c([N+](=O)[O-])c2)=C1c1ccc(O)c([N+](=O)[O-])c1`, the minimal inhibitory concentration (MIC) against Proteus vulgaris, against Micrococcus luteus, with Bacillus subtilis [7] and with Escherichia coli [8] was 25 to 100 µg/mL (≈ 67.3 to 269 µM) in each case.

In the case of `CC(C)=CCc1cc(C(=O)Nc2c(O)c3ccc(O[C@@H]4OC(C)(C)[C@H](O)[C@@H](OC(N)=O)[C@H]4O)c(C)c3oc2=O)ccc1O`, the minimal inhibitory concentration (MIC) in the experiment with Staphylococcus aureus [6] lay in the range of 8 to 16 µg/mL (≈ 13.4 to 26.7 µM).

Regarding `O=C1NC(=O)C(c2c[nH]c3ccccc23)=C1c1ccc(O)c([N+](=O)[O-])c1`, the minimum inhibitory concentration (MIC) against Proteus vulgaris, with Micrococcus luteus, against Bacillus subtilis [7] and against Escherichia coli [8] was 3 to 25 µg/mL (≈ 8.59 to 71.6 µM) throughout.
